Data from US20230321043A1, “COMPOUNDS HAVING PSEUDOMONAS ANTI-BIOFILM PROPERTIES” (Københavns Universitet, priority 2020, published 2023).

Assays:
[1] = system: P. aeruginosa ΔwspFΔpelΔpsl; test: growth (OD600) of treated cultures; format: cell-based, Pseudomonas aeruginosa; conditions: 0 to 100 μM, 24 hours, FIG. 3B
Procedure: Specifically, a 20 h old culture of P. aeruginosa ΔwspF,Δpsl,Δpel (Rybtke et al 2012) was diluted 100 fold into 25 mL aliquots of ABtrace media supplemented with 0.5% Cas amino acids, 0.2% glucose, 60 μg/mL of gentamicin, 1 μM FeCl3, 0.05% DMSO and either 100 μM H6-335-P1, 100 μM H6-335 or no compound as reference control. Acting as a positive control for low total cellular c-di-GMP content, a 20 hour old culture of strain P. aeruginosa ΔwspF,Δpsl,Δpel carrying plasmid pYhj::Gm (encoding a constitutively expressed YhjH phosphodiesterase) was also diluted 100 fold into 25 mL of ABtrace medium supplemented with 0.5% Cas amino acids, 0.2% glucose, 60 μg/mL of gentamicin, 1 μM FeCl3 and 0.05% DMSO. The 4 cultures were placed on a rotary shaker and following 8 hours of growth at 37° C. and 200 RPM culture samples for c-di-GMP extraction and protein quantification was collected from each of the 4 different cultures. C-di-GMP extracts were prepared and subsequently quantified by HPLC coupled tandem-MS analysis as previously described (Groizeleau et al., 2016), while protein quantification was carried out using the Pierce 660 nm Protein Assay (Thermo Scientific Cat. No 22660) according to the manufacturer's protocol. […]

wt P. aeruginosa biofilm = test: dispersal of 8 hour old biofilm, crystal violet staining; format: cell-based, Pseudomonas aeruginosa
Procedure: Using a 96 well microtiter tray format, a 20 hour old culture of wt P. aeruginosa was diluted 1000 fold into 100 μL ABtrace media aliquots supplemented with 0.2% glucose, 0.5% Cas amino acids and 1 μM FeCl3. The resulting microtiter trays were sealed with an air permeable lid and the biofilm cultures were incubated at 37° C. on a rotary shaker at 160 RPM.
After this, the culture supernatants were discarded and the remaining biomass was stained with crystal violet (Groizeleau et al. 2016). Finally, the amount of Crystal violet bound to the biofilm present in each well was plotted as a function of H6-335-P1, H6-335, H6-335-SAR compound 26 and H6-335- SAR compound 25 in the following concentrations: 100 μM, 50 μM, 25 μM, 12 μM or 0 μM (FIG. 4D). Means and standard deviations (bars) in FIG. 4D represents 5 biological replicates (n=5)

[2] = system: P. aeruginosa biofilm on urinary tract catheters; test: catheter associated urinary tract infection model in mice; format: in vivo
Procedure: Silicone catheters (5 mm long, 0.64 mm OD×0.3 mm ID) incubated with P. aeruginosa cultures (OD 1) for 22 hours to allow bacterial adhesion and subsequent coating. Mice then had the catheters inserted in the bladder and biofilm developed on the catheters for 24 hours. […] At 48 hours post-insertion the mice were euthanized, and the bacterial contents as CFU per implant were determined. Two experiments were pooled, and the median CFU per implant for the placebo group was set to 100. Horizontal lines indicate median CFU for each group. Each symbol represents a mouse. IP administered doses: H6 P1: 2×13 mg/Kg BW, CIP: 2×1 mg/Kg BW.
Silicone catheters (5 mm long, 0.64 mm OD×0.3 mm ID) incubated with P. aeruginosa cultures (OD 1) for 22 hours to allow bacterial adhesion and subsequent coating. Mice then had the catheters inserted in the bladder and biofilm developed on the catheters for 24 hours. […] At 48 hours post-insertion the mice were euthanized, and the bacterial contents as CFU per implant were determined. The median CFU per catheter for the control groups were set to 100. The median CFU per catheter for the placebo groups were 3×10^5 and 7×10^4. Horizontal lines indicate median CFU for each group. Each symbol represents one mouse. Orally administered doses: 2×13 mg/Kg BW, 2×3.3 mg/Kg BW. […]

[3] = system: P. aeruginosa wspF mutant; test: Congo Red agar plate colony phenotype; format: cell-based, Pseudomonas aeruginosa; conditions: CR plates supplemented with 100 μM; dark red without compound
Source text: The inventors employed mutational analysis with the aim of identifying a putative target of H6-335-P1. The compound Congo Red (CR) binds to exopolymers whose production is positively regulated by c-di-GMP in P. aeruginosa (Friedman, L., and R. Kolter. 2003.
Genes involved in matrix formation in Pseudomonas aeruginosa PA14 biofilms. Molecular Microbiology 51:675-690).

N=C1NN=C(N)/C1=N/Nc1ccccc1F [H6-335-P1, 4-[(2-fluorophenyl) hydrazinylidene]pyrazole-3,5-diamine]
effect on growth (OD600) [1]: does not inhibit growth | dispersal of an 8 hour old biofilm (wt P. aeruginosa biofilm; 100 μM, within a 2 hours period): 88% | rank of biofilm dispersing potency among the four tested compounds (wt P. aeruginosa biofilm; 12 to 100 μM, two hours of dispersal, FIG. 4D): most potent biofilm dispersing compound | number of bacteria on the catheters, intraperitoneal administration ([2]; given as H6-335-P1:HCl 2×13 mg/Kg BW IP, with or without ciprofloxacin, FIG. 10A): reduced the number of bacteria on the catheters | biofilm mass on the catheters, oral administration ([2]; given as H6-335-P1:HCl in Nutella, as low as […] (3.3 mg/Kg BW), FIG. 10B): significantly reduces the biofilm mass on the catheters | colony colour on Congo Red plates [3]: white colonies
